Read-outs that look alike come from different tables or passages of the source.
What was measured:
CYP3A4 = molecular target: T1, CYP3A4 (Homo sapiens, UniProt P08684); experiment: Cytochrome P450 inhibition assay (midazolam hydroxylation); assay type: in vitro ADME; details: human, human liver microsomes, probe midazolam (hydroxylation to 1′-hydroxymidazolam), 10 μM test compound, midazolam at approximately its Km
T1 construct: pre-incubated with human liver microsomes and NADPH; from tissue; host or cells: human liver microsomes
T1 sequence (P08684 whole entry): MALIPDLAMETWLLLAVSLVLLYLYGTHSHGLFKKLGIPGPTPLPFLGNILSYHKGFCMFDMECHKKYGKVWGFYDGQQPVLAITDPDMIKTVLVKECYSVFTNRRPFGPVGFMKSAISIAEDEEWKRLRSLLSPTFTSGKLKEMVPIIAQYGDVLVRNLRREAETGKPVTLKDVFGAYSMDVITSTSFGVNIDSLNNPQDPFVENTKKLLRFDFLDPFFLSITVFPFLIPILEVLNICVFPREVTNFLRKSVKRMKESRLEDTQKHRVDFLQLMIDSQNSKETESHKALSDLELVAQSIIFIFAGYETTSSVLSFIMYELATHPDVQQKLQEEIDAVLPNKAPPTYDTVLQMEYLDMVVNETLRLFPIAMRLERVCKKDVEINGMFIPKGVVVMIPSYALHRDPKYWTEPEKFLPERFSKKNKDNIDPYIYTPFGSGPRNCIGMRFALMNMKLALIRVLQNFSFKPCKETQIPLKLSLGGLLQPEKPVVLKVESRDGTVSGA
Method in brief: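 Human liver microsomes; CYP3A4 activity as midazolam 1′-hydroxylation with substrate near Km, with or without 10 μM test compound, read as percent inhibition. For time-dependent inhibition, parallel samples were preincubated 30 min with NADPH before substrate, and percent inhibition compared with non-preincubated samples.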

OX1 = molecular target: T2, OX1 (Homo sapiens, UniProt O43613); experiment: Orexin receptor cell-based functional assay, [Ca2+]i by FLIPR, CHO-OX1 cells
T2 construct: expressed in transfected cells; host or cells: CHO (CHO-OX1, kept under selection antibiotic)
T2 sequence (O43613 1-425): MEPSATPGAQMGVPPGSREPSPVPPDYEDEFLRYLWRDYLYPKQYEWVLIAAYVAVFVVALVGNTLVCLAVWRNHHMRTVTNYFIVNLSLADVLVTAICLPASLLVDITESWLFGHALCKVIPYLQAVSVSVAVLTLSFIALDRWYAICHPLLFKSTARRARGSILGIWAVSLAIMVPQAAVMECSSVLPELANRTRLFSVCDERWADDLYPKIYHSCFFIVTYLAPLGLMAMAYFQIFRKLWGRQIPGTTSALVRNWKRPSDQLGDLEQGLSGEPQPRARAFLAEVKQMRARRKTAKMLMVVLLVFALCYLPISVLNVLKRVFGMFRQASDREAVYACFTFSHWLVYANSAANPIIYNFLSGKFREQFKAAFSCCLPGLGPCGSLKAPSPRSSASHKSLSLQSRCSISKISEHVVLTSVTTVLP
Method in brief: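 CHO cells expressing human OX1 or OX2 loaded with calcium dye plus 2.5 mM probenecid at 37° C (calcium4, 30 min, or calcium6, 2 h), then exposed to compounds (0.1 nM-10 μM) for 30 min. Intracellular Ca2+ measured on FLIPR; antagonist format.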

[1] = CHO-OX1 cells, [Ca2+]i by FLIPR, antagonist dose-range 0.1 nM-10 μM, EC90 of OXA, read-out: OX1

Compound | inhibition at 10 µM (CYP3A4) [%] | IC50 (OX1; [1]) [nM] | IC50 (OX1; Table 6, racemate vs enantiomers, read-out: OX1 IC50) [nM]
C[C@@H]1CCCN(C(=O)c2cccc(F)c2-c2ncccn2)[C@@H]1CNc1ncc(Cl)cn1 [Example A231, (3-Fluoro-2-(pyrimidin-2-yl)phenyl)((2S,3R)-3-methyl-2-(((5-chloropyrimidin-2-yl)amino)methyl)piperidin-1-yl)methanone] | 54 | 17 | –
Cc1ccc(-c2ncccn2)c(C(=O)N2CCC[C@@H](C)[C@H]2CNc2ccc(C#N)cn2)c1 [Example A139, 6-((((2S,3R)-3-Methyl-1-(5-methyl-2-(pyrimidin-2-yl)benzoyl)piperidin-2-yl)methyl)amino)nicotinonitrile] | 41 | 140 | –
Cc1cncc(-c2ccc(C)cc2C(=O)N2CCC[C@@H](C)[C@H]2CNc2ccc(C(F)(F)F)cn2)c1 [Example A5, ((2S,3R)-3-Methyl-2-(((5-(trifluoromethyl)pyridin-2-yl)amino)methyl)piperidin-1-yl)(5-methyl-2-(5-methylpyridin-3-yl)phenyl)methanone] | 98 | 6 | –
C[C@@H]1CCCN(C(=O)c2cc(F)ccc2-n2nccn2)[C@@H]1CNc1ccc(Cl)cn1 [Example A209, ((2S,3R)-2-(((5-Chloropyridin-2-yl)amino)methyl)-3-methylpiperidin-1-yl)(5-fluoro-2-(2H-1,2,3-triazol-2-yl)phenyl)methanone] | 69 | 45 | –
Cc1ccc(NC[C@@H]2[C@H](C)CCCN2C(=O)c2cc(C)ccc2-c2ncccn2)nc1 [Example A143, ((2S,3R)-3-Methyl-2-(((5-methylpyridin-2-yl)amino)methyl)piperidin-1-yl)(5-methyl-2-(pyrimidin-2-yl)phenyl)methanone] | 75 | 26 | –
C[C@@H]1CCCN(C(=O)c2cc(Cl)ccc2-c2ncccn2)[C@@H]1CNc1ccc(C(F)(F)F)nn1 [Example A200, (5-Chloro-2-(pyrimidin-2-yl)phenyl)((2S,3R)-3-methyl-2-(((6-(trifluoromethyl)pyridazin-3-yl)amino)methyl)piperidin-1-yl)methanone] | 73 | 54 | –
C[C@@H]1CCCN(C(=O)c2cccc(F)c2-n2nccn2)[C@@H]1CNc1ncc(Cl)cn1 [Example A255, ((2S,3R)-2-(((5-Chloropyrimidin-2-yl)amino)methyl)-3-methylpiperidin-1-yl)(3-fluoro-2-(2H-1,2,3-triazol-2-yl)phenyl)methanone] | 41 | 41 | –
Cc1ccc(-n2nccn2)c(C(=O)N2CCC[C@@H](C)[C@H]2CNc2ncc(C(F)(F)F)cn2)c1 [Example A149, ((2S,3R)-3-Methyl-2-(((5-(trifluoromethyl)pyrimidin-2-yl)amino)methyl)piperidin-1-yl)(5-methyl-2-(2H-1,2,3-triazol-2-yl)phenyl)methanone] | 60 | 3 | –
Cc1nc(C(=O)N2CCC[C@@H](C)[C@H]2CNc2ccc(C(F)(F)F)cn2)c(-c2ccc(F)cc2)s1 [Example A85, (5-(4-Fluorophenyl)-2-methylthiazol-4-yl)((2S,3R)-3-methyl-2-(((5-(trifluoromethyl)pyridin-2-yl)amino)methyl)piperidin-1-yl)methanone] | 9 | 2 | 2
Cc1ccc(-n2nccn2)c(C(=O)N2CCC[C@@H](C)[C@H]2CNc2ccc(Cl)cn2)c1 [Example A78, ((2S,3R)-2-(((5-Chloropyridin-2-yl)amino)methyl)-3-methylpiperidin-1-yl)(5-methyl-2-(2H-1,2,3-triazol-2-yl)phenyl)methanone] | 84 | 7 | –
Cc1ccc(-n2nccn2)c(C(=O)N2CCC[C@@H](C)[C@H]2CNc2ncc(Cl)cn2)n1 [Example A177, ((2S,3R)-2-(((5-Chloropyrimidin-2-yl)amino)methyl)-3-methylpiperidin-1-yl)(6-methyl-3-(2H-1,2,3-triazol-2-yl)pyridin-2-yl)methanone] | 39 | 5 | –
Cc1ccc(-c2cnn(C)c2)c(C(=O)N2CCC[C@@H](C)[C@H]2CNc2ncccc2C#N)c1 [Example A95, 2-((((2S,3R)-3-Methyl-1-(5-methyl-2-(1-methyl-1H-pyrazol-4-yl)benzoyl)piperidin-2-yl)methyl)amino)nicotinonitrile] | 88 | > 1000 | –
Cc1ccc(-n2ccc(C)n2)c(C(=O)N2CCC[C@@H](C)[C@H]2CNc2ccc(C#N)cn2)c1 [Example A133, 6-((((2S,3R)-3-Methyl-1-(5-methyl-2-(3-methyl-1H-pyrazol-1-yl)benzoyl)piperidin-2-yl)methyl)amino)nicotinonitrile] | 89 | 93 | –
Cc1ccc(-n2ncc(C)n2)c(C(=O)N2CCC[C@@H](C)[C@H]2CNc2ccc(F)cn2)c1 [Example A142, ((2S,3R)-2-(((5-Fluoropyridin-2-yl)amino)methyl)-3-methylpiperidin-1-yl)(5-methyl-2-(4-methyl-2H-1,2,3-triazol-2-yl)phenyl)methanone] | 74 | 51 | –
Cc1ccc(-n2cccn2)c(C(=O)N2CCC[C@@H](C)[C@H]2CNc2ccc(C#N)nn2)c1 [Example A156, 6-((((2S,3R)-3-Methyl-1-(5-methyl-2-(1H-pyrazol-1-yl)benzoyl)piperidin-2-yl)methyl)amino)pyridazine-3-carbonitrile] | 53 | > 1000 | –
Cc1ccc(-n2nccn2)c(C(=O)N2CCC[C@@H](C)[C@H]2CNc2nc3cc(Cl)ccc3o2)c1 [Example A11, ((2S,3R)-2-(((5-Chlorobenzo[d]oxazol-2-yl)amino)methyl)-3-methylpiperidin-1-yl)(5-methyl-2-(2H-1,2,3-triazol-2-yl)phenyl)methanone] | 78 | 3 | –
Cc1ccc(-n2nccn2)c(C(=O)N2CCC[C@@H](C)[C@H]2CNc2ccc(C#N)nn2)c1 [Example A145, 6-((((2S,3R)-3-Methyl-1-(5-methyl-2-(2H-1,2,3-triazol-2-yl)benzoyl)piperidin-2-yl)methyl)amino)pyridazine-3-carbonitrile] | 48 | > 1000 | –
C[C@@H]1CCCN(C(=O)c2cc(F)c(F)cc2-n2nccn2)[C@@H]1CNc1ncc(C(F)(F)F)cn1 [Example A248, (4,5-Difluoro-2-(2H-1,2,3-triazol-2-yl)phenyl)((2S,3R)-3-methyl-2-(((5-(trifluoromethyl)pyrimidin-2-yl)amino)methyl)piperidin-1-yl)methanone] | 67 | 20 | –
COc1cccnc1NC[C@@H]1[C@H](C)CCCN1C(=O)c1cc(C)ccc1-n1nccn1 [Example A98, ((2S,3R)-2-(((3-Methoxypyridin-2-yl)amino)methyl)-3-methylpiperidin-1-yl)(5-methyl-2-(2H-1,2,3-triazol-2-yl)phenyl)methanone] | 48 | 270 | –
Cc1ccc(-c2ccccn2)c(C(=O)N2CCC[C@@H](C)[C@H]2CNc2ncc(C(F)(F)F)cn2)n1 [Example A167, ((2S,3R)-3-Methyl-2-(((5-(trifluoromethyl)pyrimidin-2-yl)amino)methyl)piperidin-1-yl)(6′-methyl-[2,3′-bipyridin]-2′-yl)methanone] | 45 | 5 | –
C[C@@H]1CCCN(C(=O)c2cc(F)c(F)cc2-c2ncccn2)[C@@H]1CNc1ncc(C(F)(F)F)cn1 [Example A243, (4,5-Difluoro-2-(pyrimidin-2-yl)phenyl)((2S,3R)-3-methyl-2-(((5-(trifluoromethyl)pyrimidin-2-yl)amino)methyl)piperidin-1-yl)methanone] | 68 | 75 | –
Cc1ccc(-n2nccn2)c(C(=O)N2CCC[C@@H](C)[C@H]2CNc2nc3cc(F)ccc3o2)c1 [Example A129, ((2S,3R)-2-(((5-Fluorobenzo[d]oxazol-2-yl)amino)methyl)-3-methylpiperidin-1-yl)(5-methyl-2-(2H-1,2,3-triazol-2-yl)phenyl)methanone] | 64 | 3 | –
Cc1ccc(-n2cccn2)c(C(=O)N2CCC[C@@H](C)[C@H]2CNc2ccc(C(F)(F)F)nn2)c1 [Example A157, ((2S,3R)-3-mMethyl-2-(((6-(trifluoromethyl)pyridazin-3-yl)amino)methyl)piperidin-1-yl)(5-methyl-2-(1H-pyrazol-1-yl)phenyl)methanone] | 77 | 110 | –
Cc1ccc(-c2cnccc2C)c(C(=O)N2CCC[C@@H](C)[C@H]2CNc2ccc(C(F)(F)F)cn2)c1 [Example A8, ((2S,3R)-3-Methyl-2-(((5-(trifluoromethyl)pyridin-2-yl)amino)methyl)piperidin-1-yl)(5-methyl-2-(4-methylpyridin-3-yl)phenyl)methanone] | 99 | 58 | –

From patent publication US9440982B2 (Eolas Therapeutics, Inc., priority 2012, dated 2016)
